Solubility data for one molecule are collected here from patent publication US20050075501A1, “Ammonium compounds bearing and electrophilic fluorine, reagent containing same, method using same and synthesis method for obtaining them” (priority 2000, published 2005).

A short description of this data set: Solubility of N-fluorocinchonidinium tetrafluoroborate in solvents. Format: physicochemical. As to conditions: acetonitrile. The procedure:
^19F NMR (282 MHz, CD3CN/CCl3F): 37.71 (s, 1F); −154.52 (s, 1F); −154.60 (s, 3F). (CD3CN/TFA): 118.35 (s, 1F); −74.12 (s, 1F); −74.17 (s, 3F). FTIR: (ν N—F) 927 cm^−1 Melting point: 189+/−2° C. […] MS (FAB^+, glycerol) 313 (cation^+, 18%) 295 (cation-H2O, 100) . TLC: acetone/heptane: 9/1; Rf=0.3.

Regarding `C=CC1C[N+]2(F)CCC1CC2C(O)c1ccnc2ccccc12.F[B-](F)(F)F` (stereo not shown) [N-fluorocinchonidinium Tetrafluoroborate], the Solubility entry is “ca. 200 mg/ml”.
